Data on 1 compound can be found in publication PMC10226046, “Prodrug Strategies for the Development of β-L-5-((E)-2-Bromovinyl)-1-((2S,4S)-2-(hydroxymethyl)-1,3-(dioxolane-4-yl))uracil (L-BHDU) against Varicella Zoster Virus (VZV)” (Journal of Medicinal Chemistry, 2023).

Like-named read-outs stand apart in the source and are kept apart here.

A short description of data set [1]: In vitro stability in mouse liver homogenates (LC-MS/MS). It is filed as in vitro ADME, BALB/c mice. Particulars: 37 °C; converted to L-BHDU and L-BHDU-MP. The procedure:
The antiviral efficacy of POM-L-BHDU-MP prompted us to perform pharmacokinetic studies on POM-L-BHDU-MP in vitro and in vivo. […] In liver homogenates, POM-L-BHDU-MP converted to L-BHDU and L-BHDU-MP (Figure 4). POM-L-BHDU-MP incubated with homogenized mouse liver was unstable and converted to L-BHDU and L-BHDU-MP. The concentration of L-BHDU increased steadily, reaching 1.9 μg/mL after 60 min. L-BHDU-MP appeared rapidly and reached maximal concentration (4.6 μg/mL) after 4 min, which is 32-fold higher than the corresponding L-BHDU concentration. Thus, POM-L-BHDU-MP likely converts rapidly into L-BHDU-MP and more slowly into L-BHDU in the liver.
Untreated BALB/c mice were euthanized, and their livers were immediately removed. […] The concentration of POM-L-BHDU-MP, L-BHDU, and L-BHDU-MP were determined using LC-MS/MS.
The primary stock solutions for the calibration were prepared at 0.5 mg/mL for L-BHDU, 1 mg/mL for POM-L-BHDU-MP, and 1 mg/mL for L-BHDU-MP. […] The samples were analyzed in a negative ESI mode. […] The collision gas was argon with a collision cell pressure of 3.18 × 10^–3 mbar, and the collision energy was 30 V. A multiple reaction monitoring (MRM) function was used to quantify the analytes using the following ion transitions: 266.1 → 223.2 for AZT (ISTD), 318.7 → 80.7 for L-BHDU, 398.7 → 180.9 for L-BHDU-MP, and 626.6 → 325 for POM-L-BHDU-MP.

Data set [2] concerns VZV-ORF57-Luc. Put plainly: microbe, parasite or virus in culture. Particulars: Human alphaherpesvirus 3, ARPE-19, cell-free VZV-ORF57-Luc, ARPE-19 cells, 72 hpi, bioluminescence imaging.
For the next data set, the system named is VZV-ORF57-ΔTS. Kind of data set: microbe, parasite or virus in culture. It counts as cell-based, Varicella zoster virus. The conditions noted are these: Human alphaherpesvirus 3, ARPE-19.
Data set [3] has as its system VZV-ORF57-Luc. The conditions noted are these: for EC50: cell-free VZV-ORF57-Luc, ARPE-19 cells, 72 hpi, bioluminescence imaging.
For the next data set, the system named is VZV-ORF57-ΔTK. Kind of data set: microbe, parasite or virus in culture. The conditions noted are these: Human alphaherpesvirus 3, ARPE-19. It counts as cell-based, Varicella zoster virus.
Data set [4] can be described thus: Stability in gastric and intestinal juice. It is filed as in vitro ADME. The conditions noted are these: data not shown.

As usually defined, the EC50 is the midpoint of the concentration-response curve. Low values mean a more potent agent, high ones a less potent agent. On to `CC(C)(C)C(=O)OCOP(=O)(OCOC(=O)C(C)(C)C)OC[C@H]1OC[C@@H](n2cc(/C=C/Br)c(=O)[nH]c2=O)O1` [POM-L-BHDU-MP (41), Bis(POM) Prodrug of L-BHDU-MP], for which the “stability in homogenized mouse liver” value in data set [1] is listed as “unstable”. The EC50 was 35 nM in the data set on VZV-ORF57-Luc [2]; 1.2 nM with VZV-ORF57-ΔTS; 35.6 nM in the data set on VZV-ORF57-Luc [3]; 36 nM in the data set with VZV-ORF57-Luc [3] (listed as POM-L-BHDU-MP); more than 2000 nM with VZV-ORF57-ΔTK. The “SI (CC50/EC50)” value is given as more than 2809 with VZV-ORF57-Luc [3]; more than 2809 in the data set with VZV-ORF57-Luc [3] (selectivity index = CC50/EC50, ARPE-19 cells); more than 2809 with VZV-ORF57-Luc [3] (selectivity index = CC50/EC50, ARPE-19 cells, listed as POM-L-BHDU-MP). Also, the “stability in gastric and intestinal juice” value in data set [4] is listed as “good stability”.
